Read-outs that look alike come from different tables or passages of the source.
How the values were obtained:
Type in all cases: cell-based
[1] = system: PC-3 (androgen independent prostate cancer cells); test: Anti-proliferation activity against PC-3 cells; conditions: Homo sapiens, PC-3, read-out: IC50 PC-3
Experimental: (§1) Upon completion of synthesis of library of compounds in Examples 23 and 24, the compounds were evaluated for anti-proliferative activity against SkBr3 (Her2 overexpressing breast cancer cells), MCF-7 (estrogen receptor positive breast cancer cells), HCT-116 (colon cancer cells characterized by wild-type p53), PL45 (pancreatic cancer cells), LNCaP (androgen sensitive prostate cancer cells) and PC-3 (androgen independent prostate cancer cells) cell lines. […] The monosubstituted benzamide variants improved activity.
Cells were maintained in a 1:1 mixture of Advanced DMEM/F12 (Gibco) supplemented with non-essential amino acids, L-glutamine (2 mM), streptomycin (500 ng/mL), penicillin (100 units/mL), and 10% FBS. Cells were grown to confluence in a humidified atmosphere (37° C., 5% CO2), seeded (2000/well, 100 μl) in 96-well plates, and allowed to attach overnight. […] […] Cells incubated in 1% DMSO were used at 100% proliferation, and values were adjusted accordingly. IC50 values were calculated from separate experiments performed in triplicate using GraphPad Prism.

[2] = system: MCF-7 (estrogen receptor positive breast cancer cells); test: Anti-proliferation activity against MCF-7 cells (MTS/PMS); conditions: for IC50: Homo sapiens, MCF7, read-out: IC50 MCF-7
Experimental: (§2) Upon completion of synthesis of library of compounds in Examples 23 and 24, the compounds were evaluated for anti-proliferative activity against SkBr3 (Her2 overexpressing breast cancer cells), MCF-7 (estrogen receptor positive breast cancer cells), HCT-116 (colon cancer cells characterized by wild-type p53), PL45 (pancreatic cancer cells), LNCaP (androgen sensitive prostate cancer cells) and PC-3 (androgen independent prostate cancer cells) cell lines.
(§3) Cells were maintained in a 1:1 mixture of Advanced DMEM/F12 (Gibco) supplemented with non-essential amino acids, L-glutamine (2 mM), streptomycin (500 ng/mL), penicillin (100 units/mL), and 10% FBS. Cells were grown to confluence in a humidified atmosphere (37° C., 5% CO2), seeded (2000/well, 100 μl) in 96-well plates, and allowed to attach overnight. Compound or GDA at varying concentrations in DMSO (1% DMSO final concentration) was added, and cells were returned to the incubator for 72 hours. At 72 hours, the number of viable cells was determined using an MTS/PMS cell proliferation kit (Promega) per the manufacturer's instructions. Cells incubated in 1% DMSO were used at 100% proliferation, and values were adjusted accordingly. IC50 values were calculated from separate experiments performed in triplicate using GraphPad Prism.
as §3, with “μg/mL),” for “ng/mL),”, “μL)” for “μl)”

[3] = system: PL45 (pancreatic cancer cells); test: Anti-proliferation activity against PL45 cells
Experimental: as §1

[4] = system: SkBr3 (Her2 overexpressing breast cancer cells); test: Anti-proliferation activity against SkBr3 cells (MTS/PMS); conditions: Homo sapiens, SK-BR-3
Experimental: as §2, §3
as §3, with “μg/mL),” for “ng/mL),”, “μL)” for “μl)”

[5] = system: LNCaP (androgen sensitive prostate cancer cells); test: Anti-proliferation activity against LNCaP cells; conditions: Homo sapiens, LNCaP
Experimental: as §1, §3

[6] = system: HCT-116 (colon cancer cells characterized by wild-type p53); test: Anti-proliferation activity against HCT-116 cells; conditions: Homo sapiens
Experimental: as §1

[7] = Table 4, biaryl analogues, n = 3
[8] = Table 2, n = 3, read-out: IC50 SkBr3
[9] = Table 2, n = 3, read-out: IC50 LNCaP
[10] = Table 5, heterocyclic analogues, n = 3
[11] = Table 5, heterocyclic analogues, n = 3, read-out: IC50 LNCaP
[12] = Table 6, 72 hours, MTS/PMS, mean ± standard deviation
[13] = Table 6, 72 hours, MTS/PMS, mean ± standard deviation, read-out: IC50 SKBr3
[14] = Table 6, 72 hours, MTS/PMS, mean ± standard deviation, read-out: IC50 LnCaP

| Structure (SMILES) | IC50 ([2]; Table 2, n = 3) | IC50 ([3]; Table 2, n = 3) | IC50 [4, 8] | IC50 ([6]; Table 2, n = 3) | IC50 [1, 12] | IC50 [2, 12] | IC50 [4, 13] | IC50 [5, 14] | further results |
| --- | --- | --- | --- | --- | --- | --- | --- | --- | --- |
| COc1ccc(C(=O)Nc2cc3ccc(O[C@@H]4OC(C)(C)[C@H](OC)[C@@H](O)[C@H]4O)c(C)c3oc2=O)cc1-c1ccc(C)cc1 [compound 31, N-(7-((2R,3R,4S,5R)-3,4-Dihydroxy-5-methoxy-6,6-dimethyltetrahydro-2H-pyran-2-yloxy)-8-methyl-2-oxo-2H-chromen-3-yl)-6-methoxy-4′-methylbiphenyl-3-carboxamide] | – | – | – | – | – | – | – | – | IC50 [1, 7]: 31.9 ± 10.3 µM; IC50 [2, 7]: 16.7 ± 6.3 µM; IC50 [3, 7]: 1.4 ± 0.1 µM; IC50 ([4]; Table 4, biaryl analogues, n = 3, read-out: IC50 SkBr3): 25.4 ± 1.7 µM; IC50 ([5]; Table 4, biaryl analogues, n = 3, read-out: IC50 LNCaP): 3.7 ± 0.9 µM; IC50 [6, 7]: 2.4 ± 1 µM |
| CO[C@@H]1[C@@H](O)[C@@H](O)[C@H](Oc2ccc3cc(NC(=O)c4ccccc4[N+](=O)[O-])c(=O)oc3c2C)OC1(C)C [compound 15, N-(7-((2R,3R,4S,5R)-3,4-Dihydroxy-5-methoxy-6,6-dimethyltetrahydro-2H-pyran-2-yloxy)-8-methyl-2-oxo-2H-chromen-3-yl)-2-nitrobenzamide] | 28.7 ± 4.8 µM | 20.1 ± 4.7 µM | 21.8 ± 0.8 µM | 44.3 ± 4.8 µM | – | – | – | – | IC50 [5, 9]: 16.8 ± 0.8 µM |
| COc1ccccc1C(=O)Nc1cc2ccc(O[C@@H]3OC(C)(C)[C@H](OC)[C@@H](O)[C@H]3O)c(C)c2oc1=O [compound 9, N-(7-((2R,3R,4S,5R)-3,4-Dihydroxy-5-methoxy-6,6-dimethyltetrahydro-2H-pyran-2-yloxy)-8-methyl-2-oxo-2H-chromen-3-yl)-2-methoxybenzamide] | 5.3 ± 1.3 µM | 35.8 ± 3.4 µM | > 100 µM | > 100 µM | – | – | – | – | IC50 ([1]; Table 2, n = 3): 9.1 ± 0.5 µM |
| COc1cccc(C(=O)Nc2cc3ccc(O[C@@H]4OC(C)(C)[C@H](OC)[C@@H](O)[C@H]4O)c(C)c3oc2=O)c1 [compound 10, N-(7-((2R,3R,4S,5R)-3,4-Dihydroxy-5-methoxy-6,6-dimethyltetrahydro-2H-pyran-2-yloxy)-8-methyl-2-oxo-2H-chromen-3-yl)-3-methoxybenzamide] | 5.6 ± 2.5 µM | 2.8 ± 0.8 µM | > 100 µM | 1.9 ± 0.6 µM | – | – | – | – | IC50 [5, 9]: 21.7 ± 2 µM |
| CO[C@@H]1[C@@H](O)[C@@H](O)[C@H](Oc2ccc3cc(NC(=O)c4cccc([N+](=O)[O-])c4)c(=O)oc3c2C)OC1(C)C [compound 16, N-(7-((2R,3R,4S,5R)-3,4-Dihydroxy-5-methoxy-6,6-dimethyltetrahydro-2H-pyran-2-yloxy)-8-methyl-2-oxo-2H-chromen-3-yl)-3-nitrobenzamide] | > 100 µM | > 100 µM | > 100 µM | > 100 µM | – | – | – | – | IC50 ([1]; Table 2, n = 3): > 100 µM |
| CO[C@@H]1[C@@H](O)[C@@H](O)[C@H](Oc2ccc3cc(NC(=O)OCc4ccccc4)c(=O)oc3c2C)OC1(C)C [compound 24, Benzyl 7-((2R,3R,4S,5R)-3,4-dihydroxy-5-methoxy-6,6-dimethyltetrahydro-2H-pyran-2-yloxy)-8-methyl-2-oxo-2H-chromen-3-ylcarbamate] | – | – | – | – | – | – | – | – | IC50 ([2]; Table 3, n = 3): 12.1 ± 0.1 µM; IC50 ([3]; Table 3, n = 3): 11.4 ± 0.6 µM; IC50 ([4]; Table 3, n = 3, read-out: IC50 SkBr3): 17.8 ± 2.4 µM; IC50 ([6]; Table 3, n = 3): 13 ± 0.2 µM |
| CO[C@@H]1[C@@H](O)[C@@H](O)[C@H](Oc2ccc3cc(NC(=O)c4cc5ccccc5s4)c(=O)oc3c2C)OC1(C)C [compound 44, N-(7-((2R,3R,4S,5R)-3,4-Dihydroxy-5-methoxy-6,6-dimethyltetrahydro-2H-pyran-2-yloxy)-8-methyl-2-oxo-2H-chromen-3-yl)benzo[b]thiophene-2-carboxamide] | – | – | – | – | – | – | – | – | IC50 [1, 10]: 7.4 ± 2.1 µM; IC50 [2, 10]: 96.3 ± 3.7 µM; IC50 [3, 10]: 33.2 ± 0.7 µM; IC50 [5, 11]: > 100 µM; IC50 [6, 10]: 78.9 ± 3.5 µM |
| CO[C@@H]1[C@@H](O)[C@@H](O)[C@H](Oc2c(OC(C)C)cc3cc(NC(=O)c4cc5ccccc5[nH]4)c(=O)oc3c2C)OC1(C)C [26k, N-(7-((2S,3R,4S,5R)-3,4-dihydroxy-5-methoxy-6,6-dimethyltetrahydro-2H-pyran-2-yloxy)-6-isopropoxy-8-methyl-2-oxo-2H-chromen-3-yl)-1H-indole-2-carboxamide] | – | – | – | – | 11.9 µM | 20 ± 1 µM | 20.7 ± 0.4 µM | 11.4 µM | – |
| COc1cc2cc(NC(=O)c3cc4ccccc4[nH]3)c(=O)oc2c(C)c1O[C@@H]1OC(C)(C)[C@H](OC)[C@@H](O)[C@H]1O [26i, N-(7-((2S,3R,4S,5R)-3,4-dihydroxy-5-methoxy-6,6-dimethyltetrahydro-2H-pyran-2-yloxy)-6-methoxy-8-methyl-2-oxo-2H-chromen-3-yl)-1H-indole-2-carboxamide] | – | – | – | – | 20.2 ± 9.8 µM | 24.4 ± 1.2 µM | 25.1 ± 7.7 µM | 10.5 ± 0.3 µM | – |
| COc1c(O[C@@H]2OC(C)(C)[C@H](OC)[C@@H](O)[C@H]2O)ccc2cc(NC(=O)c3cc4ccccc4[nH]3)c(=O)oc12 [26o, N-(7-((2S,3R,4S,5R)-3,4-dihydroxy-5-methoxy-6,6-dimethyltetrahydro-2H-pyran-2-yloxy)-8-methoxy-2-oxo-2H-chromen-3-yl)-1H-indole-2-carboxamide] | – | – | – | – | > 100 µM | > 100 µM | 9.7 ± 1 µM | > 100 µM | – |
| CO[C@@H]1[C@@H](O)[C@@H](O)[C@H](Oc2ccc3cc(NC(=O)c4cc5ccccc5o4)c(=O)oc3c2C)OC1(C)C [compound 43, N-(7-((2R,3R,4S,5R)-3,4-Dihydroxy-5-methoxy-6,6-dimethyltetrahydro-2H-pyran-2-yloxy)-8-methyl-2-oxo-2H-chromen-3-yl)benzofuran-2-carboxamide] | – | – | – | – | – | – | – | – | IC50 [1, 10]: 18.8 ± 4.4 µM; IC50 [2, 10]: 28.6 ± 4.1 µM; IC50 [3, 10]: 3.8 ± 0.4 µM; IC50 [5, 11]: 7.9 ± 1.1 µM; IC50 [6, 10]: 9.6 ± 0.3 µM |
| CO[C@@H]1[C@@H](O)[C@@H](O)[C@H](Oc2ccc3cc(NC(=O)c4ccncc4)c(=O)oc3c2C)OC1(C)C [compound 42, N-(7-((2R,3R,4S,5R)-3,4-Dihydroxy-5-methoxy-6,6-dimethyltetrahydro-2H-pyran-2-yloxy)-8-methyl-2-oxo-2H-chromen-3-yl)isonicotinamide] | – | – | – | – | – | – | – | – | IC50 [2, 10]: > 100 µM; IC50 [3, 10]: 19.2 ± 2.5 µM; IC50 ([4]; Table 5, heterocyclic analogues, n = 3, read-out: IC50 SkBr3): > 100 µM; IC50 [5, 11]: 34.8 ± 16 µM; IC50 [6, 10]: > 100 µM |
| CCc1c(O[C@@H]2OC(C)(C)[C@H](OC)[C@@H](O)[C@H]2O)ccc2cc(NC(=O)c3cc4ccccc4[nH]3)c(=O)oc12 [26p, N-(7-((2R,3R,4S,5R)-3,4-dihydroxy-5-methoxy-6,6-dimethyltetrahydro-2H-pyran-2-yloxy)-8-ethyl-2-oxo-2H-chromen-3-yl)-1H-indole-2-carboxamide] | – | – | – | – | > 100 µM | 4.3 ± 2.5 µM | 4.3 ± 3.4 µM | > 100 µM | fold less active than the 8-methyl derivative ([2]; MCF-7 cells): 7 fold |
